The target in one test is T1, NK1 receptor (Cavia porcellus, UniProt P30547).
T1 construct: Tissues or cells were homogenized with a Polytron in 15 volumes of 50 mM Tris-HCl buffer; tissue Keystone Biologicals, Cleveland, OH; host or cells: guinea pig lung membranes
The experiment in a line: Antagonism of iodinated tachykinin binding to NK1 receptor (125I-Bolton Hunter Lys-3 labeled substance P, guinea pig lung membranes). On the procedure:
(§1) The NK1 receptor affinity of proposed tachykinin antagonists was devaluated in guinea pig lungs (Keystone Biologicals, Cleveland, OH), affinity for the NK2 receptor evaluated in HSKR-1 cells (which are mouse 3T3 fibroblasts expressing the human jejunal NK2 receptor) and NK-3 receptor affinity was evaluated in freshly collected guinea pig cerebral cortex. Tissues or cells were homogenized with a Polytron in 15 volumes of 50 mM Tris-HCl buffer (pH 7.4, 4°C) and centrifuged. The pellet was resuspended in Tris-HCl buffer and was centrifuged; the pellet was washed twice by resuspension. The final pellet was resuspended at a concentration of 40 mg/ml for tissues (guinea pig lung and cerebral cortex) and 20 mg/ml for cells in incubation buffer and remained at room temperature for at least 15 min prior to use. Receptor binding was initiated by addition of 250 µl membrane preparation in duplicate to 0.1 nM of the following radioligands: ^125I-Bolton Hunter Lys-3 labeled substance P; ^125iodohistidyl-1-neurokinin A; and ^125I-Bolton Hunter labeled Lys-4 eledoisin in a final volume of 500 µl of buffer containing 50 mM Tris-HCl (pH 7.4 at room temperature), 0.1% bovine serum albumin, 2 mM MnCl2, 40 µg/ml bacitracin, 4 µg/ml leupeptin and chymostatin, 1 µM thiorphan and various doses of the putative tachykinin antagonists. Incubations were performed at room temperature for 90 min (NK1 receptor assays) or 2 hr (NK2 and NK3 receptor assays); binding was terminated by addition of 50 mM Tris-HCl buffer (pH 7.4, 4°C) and filtration under vacuum through GF/B filters presoaked with 0.1% polyethyleneimine (NK1 receptor assays) or 0.5% bovine serum albumin (NK2 and NK3 receptor assays). Filter bound radioactivity was quantitated in a gamma counter. Nonspecific binding was defined as binding in the presence of 1 µM substance P, neurokinin A, or eledoisin. Specific binding was calculated by subtracting nonspecific binding from total binding. Competition of iodinated SP, NKA, or eledoisin binding by test compounds or standards was expressed as a percentage of this maximum competition. IC50 values (concentration required to inhibit 50% of receptor binding) were generated for each of the test compounds by nonlinear regression using an iterative curve fitting program (GraphPAD Inplot, San Diego, CA).

Test [1] has as its target T2, human jejunal NK2 receptor (Homo sapiens, UniProt P21452).
T2 construct: expressed in transfected cells; host or cells: HSKR-1 cells (mouse 3T3 fibroblasts)
T2 sequence (P21452 1-398): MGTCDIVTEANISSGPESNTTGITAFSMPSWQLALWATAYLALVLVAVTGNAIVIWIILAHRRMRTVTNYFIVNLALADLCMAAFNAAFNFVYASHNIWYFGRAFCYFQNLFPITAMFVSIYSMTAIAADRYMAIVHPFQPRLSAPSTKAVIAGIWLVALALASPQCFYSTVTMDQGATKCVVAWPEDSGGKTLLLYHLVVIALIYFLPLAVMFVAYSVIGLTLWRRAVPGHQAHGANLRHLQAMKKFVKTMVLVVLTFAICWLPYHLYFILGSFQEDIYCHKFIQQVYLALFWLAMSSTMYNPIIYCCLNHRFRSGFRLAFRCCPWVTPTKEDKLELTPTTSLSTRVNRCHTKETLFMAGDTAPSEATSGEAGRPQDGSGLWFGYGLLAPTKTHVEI
The experiment in a line: Antagonism of iodinated tachykinin binding to NK2 receptor (125iodohistidyl-1-neurokinin A, HSKR-1 cell membranes). On the procedure:
as §1

Setting [2] is: guinea pig lungs, mean of several experiments, read-out: NK-1 IC50.
Where [3] appears, read: HSKR-1 cells (mouse 3T3 fibroblasts expressing human jejunal NK2 receptor), mean of several experiments, read-out: NK-2 IC50.

Data on 6 molecules can be found in EP0696280B1, “SUBSTITUTED PYRROLIDIN-3-YL-ALKYL-PIPERIDINES USEFUL AS TACHYKININ ANTAGONISTS” (MERRELL PHARMACEUTICALS INC., priority 1993, dated 1994).

Structures can show the parent of a compound that is named as a salt. Where two headings read alike, the source gives them in different places.

T1 sequence (P30547 whole entry): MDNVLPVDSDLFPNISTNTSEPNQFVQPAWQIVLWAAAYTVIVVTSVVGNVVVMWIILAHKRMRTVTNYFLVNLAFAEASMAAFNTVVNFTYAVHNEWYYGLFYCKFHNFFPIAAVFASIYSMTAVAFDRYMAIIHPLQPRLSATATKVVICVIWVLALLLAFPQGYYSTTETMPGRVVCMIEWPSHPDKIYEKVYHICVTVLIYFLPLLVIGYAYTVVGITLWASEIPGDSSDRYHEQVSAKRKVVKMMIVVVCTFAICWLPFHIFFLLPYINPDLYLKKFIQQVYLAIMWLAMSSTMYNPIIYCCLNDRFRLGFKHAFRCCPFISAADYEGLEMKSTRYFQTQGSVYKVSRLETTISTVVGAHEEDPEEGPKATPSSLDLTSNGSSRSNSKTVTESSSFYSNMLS

For orientation: IC50 means the point on the concentration scale where inhibition reaches its midpoint. For the molecule `NC(=O)C1(c2ccccc2)CCN(CCC2(c3ccc4ccccc4c3)CCN(C(=O)c3ccccc3)C2)CC1` (racemic) [Example 8, 1-[2-(1-benzoyl-3-napthalen-2-yl-pyrrolidin-3-yl)-ethyl]-4-phenyl-piperidine-4-carboxylic acid amide], the values for the half-maximal inhibitory concentration (IC50) (on NK1 receptor (setting [2]); in test [1] (setting [3])) were 1480 nM and 94 nM, respectively.

Turning to `NC(=O)C1(c2ccccc2)CCN(CCC2(c3ccc4ccccc4c3)CC(=O)N(Cc3ccccc3)C2)CC1` (racemic) [Example 12], the IC50 at NK1 receptor (setting [2]) turned out to be 810 nM; in test [1] (setting [3]), 179 nM.

As to `COC(=O)CC[C@H](NC(=O)C1(c2ccccc2)CCN(CCC2(c3ccc(Cl)c(Cl)c3)CCN(C(=O)c3ccccc3)C2)CC1)C(=O)OC` (some centres unmarked) [Example 6], the IC50 at NK1 receptor (setting [2]) was 182 nM; in test [1], 15 nM.

For the molecule `COc1ccccc1C(=O)N1CCC(CCN2CCC(C(N)=O)(c3ccccc3)CC2)(c2ccc(Cl)c(Cl)c2)C1` (centres unmarked) [Example 13, 1-[2-[3-(3,4-dichloro-phenyl)-1-(2-methoxy-benzoyl)-pyrrolidin-3-yl]-ethyl]-4-phenyl-piperidine-4-carboxylic acid amide], in test [1] (setting [3]), the 50% inhibitory concentration (IC50) came to 14 nM.

With `COc1cc(C(=O)N2CCC(CCN3CCC(C(N)=O)(c4ccccc4)CC3)(c3ccccc3)C2)cc(OC)c1OC` (centres unmarked) [Example 22A, 1-[2-[3-phenyl-1-(3,4,5-trimethoxy-benzoyl)-pyrrolidin-3-yl]-ethyl]-4-phenyl-piperidine-4-carboxylic acid amide hydrochloride], the 50% inhibitory concentration (IC50) on NK1 receptor was 17.4 nM; in test [1] it was 1190 nM.

Regarding `COc1ccc(C2(CCN3CCC(C(N)=O)(c4ccccc4)CC3)CCN(C(=O)c3cc(OC)c(OC)c(OC)c3)C2)cc1OC` (centres unmarked) [Example 23, 1-[2-[3-(3,4-dimethoxy-phenyl)-1-(3,4,5-trimethoxy-benzoyl)-pyrrolidin-3-yl]-ethyl]-4-phenyl-piperidine-4-carboxylic acid amide], the IC50 at NK1 receptor worked out at 20 nM; in test [1] (setting [3]), 2680 nM.
